Results taken from patent publication US8906928B2, “Substituted pyrazolo-pyrrolo-pyridine-dione compounds” (ArQule, Inc., priority 2009, dated 2014).

Tests used:
Format in all cases: cell-based
PC-3 = test: MTS assay (cell growth inhibition), PC-3; conditions: PC-3 cells, 72 hours incubation with test compound; concentration not given
Method in brief: (§1)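 First, seed 3000 cells per well in low-serum (1% FBS) DMEM and culture 18 h. Next, add compounds prepared at 300× in DMSO and diluted 1:40 in DMEM; incubate 72 h. Finally, add MTS/PMS for 4 h and measure absorbance at 492 nm.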

DLD-1 = test: MTS assay (cell growth inhibition), DLD-1; conditions: DLD-1 cells, 72 hours incubation with test compound; concentration not given
Method in brief: as §1

Kato III = test: MTS assay (cell growth inhibition), Kato III; conditions: Kato III cells, 72 hours incubation with test compound; concentration not given
Method in brief: as §1

MDA-MB = test: MTS assay (cell growth inhibition), MDA-MB; conditions: MDA-MB cells, 72 hours incubation with test compound; concentration not given
Method in brief: as §1

PACA-2 = test: MTS assay (cell growth inhibition), PACA-2; conditions: PACA-2 cells, 72 hours incubation with test compound; concentration not given
Method in brief: as §1

NCI-H1299 = test: MTS assay (cell growth inhibition), NCI-H1299; conditions: NCI-H1299 cells, 72 hours incubation with test compound; concentration not given
Method in brief: as §1

| Structure (SMILES) | MTS CELL KILL DATA (% INHIBITION) PC-3 (PC-3) | MTS CELL KILL DATA (% INHIBITION) DLD-1 (DLD-1) | MTS CELL KILL DATA (% INHIBITION) Kato III (Kato III) | MTS CELL KILL DATA (% INHIBITION) MDA-MB (MDA-MB) | MTS CELL KILL DATA (% INHIBITION) PACA-2 (PACA-2) | MTS CELL KILL DATA (% INHIBITION) NCI-H1299 (NCI-H1299) |
| --- | --- | --- | --- | --- | --- | --- |
| CC(C)c1ccc(CN2C(=O)c3cnc4[nH]ncc4c3C2=O)cc1 [Example 14, 7-(4-isopropylbenzyl)pyrazolo[3,4-b]pyrrolo[3,4-d]pyridine-6,8(3H,7H)-dione] | A (A = 80-100% INHIBITION) | C (C = <50% INHIBITION) | B (B = 50-79% INHIBITION) | A (A = 80-100% INHIBITION) | C (C = <50% INHIBITION) | C (C = <50% INHIBITION) |
| O=C1c2cnc3[nH]ncc3c2C(=O)N1CCSc1nc2ccccc2s1 [Example 32, 7-[2-(1,3-benzothiazol-2-ylthio)ethyl]pyrazolo[3,4-b]pyrrolo[3,4-d]pyridine-6,8(3H,7H)-dione] | A (A = 80-100% INHIBITION) | C (C = <50% INHIBITION) | B (B = 50-79% INHIBITION) | C (C = <50% INHIBITION) | C (C = <50% INHIBITION) | C (C = <50% INHIBITION) |
| C[C@H](CN1C(=O)c2cnc3[nH]ncc3c2C1=O)c1ccccc1 [Example 121, 7-[(2S)-2-phenylpropyl]pyrazolo[3,4-b]pyrrolo[3,4-d]pyridine-6,8(3H,7H)-dione] | A (A = 80-100% INHIBITION) | C (C = <50% INHIBITION) | C (C = <50% INHIBITION) | B (B = 50-79% INHIBITION) | C (C = <50% INHIBITION) | C (C = <50% INHIBITION) |
| O=C1c2cnc3[nH]ncc3c2C(=O)N1CCc1ccncc1 [Example 36, 7-(2-pyridin-4-ylethyl)pyrazolo[3,4-b]pyrrolo[3,4-d]pyridine-6,8(3H,7H)-dione] | A (A = 80-100% INHIBITION) | C (C = <50% INHIBITION) | C (C = <50% INHIBITION) | A (A = 80-100% INHIBITION) | B (B = 50-79% INHIBITION) | C (C = <50% INHIBITION) |
| O=C1c2cnc3[nH]ncc3c2C(=O)N1CCc1cccc2ccccc12 [Example 77, 7-[2-(1-naphthyl)ethyl]pyrazolo[3,4-b]pyrrolo[3,4-d]pyridine-6,8(3H,7H)-dione] | A (A = 80-100% INHIBITION) | A (A = 80-100% INHIBITION) | A (A = 80-100% INHIBITION) | A (A = 80-100% INHIBITION) | A (A = 80-100% INHIBITION) | A (A = 80-100% INHIBITION) |
| CCCC(C)CCN1C(=O)c2cnc3[nH]ncc3c2C1=O (stereo not drawn) [Example 114, 7-(3-methylhexyl)pyrazolo[3,4-b]pyrrolo[3,4-d]pyridine-6,8(3H,7H)-dione] | B (B = 50-79% INHIBITION) | C (C = <50% INHIBITION) | C (C = <50% INHIBITION) | A (A = 80-100% INHIBITION) | C (C = <50% INHIBITION) | C (C = <50% INHIBITION) |
| C[C@@H](CN1C(=O)c2cnc3[nH]ncc3c2C1=O)c1ccccc1 [Example 82, 7-[(2R)-2-phenylpropyl]pyrazolo[3,4-b]pyrrolo[3,4-d]pyridine-6,8(3H,7H)-dione] | A (A = 80-100% INHIBITION) | C (C = <50% INHIBITION) | C (C = <50% INHIBITION) | A (A = 80-100% INHIBITION) | C (C = <50% INHIBITION) | C (C = <50% INHIBITION) |
| O=C1c2cnc3[nH]ncc3c2C(=O)N1Cc1ccc(Cl)c(C(F)(F)F)c1 [Example 136, 7-[4-chloro-3-(trifluoromethyl)benzyl]pyrazolo[3,4-b]pyrrolo[3,4-d]pyridine-6,8(3H,7H)-dione] | C (C = <50% INHIBITION) | C (C = <50% INHIBITION) | C (C = <50% INHIBITION) | C (C = <50% INHIBITION) | C (C = <50% INHIBITION) | C (C = <50% INHIBITION) |
| O=C1c2cnc3[nH]ncc3c2C(=O)N1CC1CCC1 [Example 76, 7-(cyclobutylmethyl)pyrazolo[3,4-b]pyrrolo[3,4-d]pyridine-6,8(3H,7H)-dione] | C (C = <50% INHIBITION) | C (C = <50% INHIBITION) | C (C = <50% INHIBITION) | C (C = <50% INHIBITION) | C (C = <50% INHIBITION) | C (C = <50% INHIBITION) |
| CC(CCN1C(=O)c2cnc3[nH]ncc3c2C1=O)CC(C)(C)C (stereo not drawn) [Example 117, 7-(3,5,5-trimethylhexyl)pyrazolo[3,4-b]pyrrolo[3,4-d]pyridine-6,8(3H,7H)-dione] | A (A = 80-100% INHIBITION) | C (C = <50% INHIBITION) | C (C = <50% INHIBITION) | A (A = 80-100% INHIBITION) | C (C = <50% INHIBITION) | C (C = <50% INHIBITION) |
| CCCC(CCC)CN1C(=O)c2cnc3[nH]ncc3c2C1=O [Example 63, 7-(2-propylpentyl)pyrazolo[3,4-b]pyrrolo[3,4-d]pyridine-6,8(3H,7H)-dione] | A (A = 80-100% INHIBITION) | C (C = <50% INHIBITION) | C (C = <50% INHIBITION) | A (A = 80-100% INHIBITION) | A (A = 80-100% INHIBITION) | C (C = <50% INHIBITION) |
| Cc1cccc(CCN2C(=O)c3cnc4[nH]ncc4c3C2=O)c1 [Example 86, 7-[2-(3-methylphenyl)ethyl]pyrazolo[3,4-b]pyrrolo[3,4-d]pyridine-6,8(3H,7H)-dione] | A (A = 80-100% INHIBITION) | C (C = <50% INHIBITION) | A (A = 80-100% INHIBITION) | A (A = 80-100% INHIBITION) | C (C = <50% INHIBITION) | C (C = <50% INHIBITION) |
| O=C1c2cnc3[nH]ncc3c2C(=O)N1Cc1cccc(I)c1 [Example 101, 7-(3-iodobenzyl)pyrazolo[3,4-b]pyrrolo[3,4-d]pyridine-6,8(3H,7H)-dione] | A (A = 80-100% INHIBITION) | B (B = 50-79% INHIBITION) | A (A = 80-100% INHIBITION) | A (A = 80-100% INHIBITION) | C (C = <50% INHIBITION) | C (C = <50% INHIBITION) |
| NC(=O)c1ccc(-c2n[nH]c3ncc4c(c23)C(=O)N(CCc2ccccc2)C4=O)cc1 [Example 160, 4-[6,8-dioxo-7-(2-phenylethyl)-3,6,7,8-tetrahydropyrazolo[3,4-b]pyrrolo[3,4-d]pyridin-1-yl]benzamide] | A (A = 80-100% INHIBITION) | A (A = 80-100% INHIBITION) | A (A = 80-100% INHIBITION) | A (A = 80-100% INHIBITION) | A (A = 80-100% INHIBITION) | B (B = 50-79% INHIBITION) |
| Cc1ccc2c(c1)N(CCN1C(=O)c3cnc4[nH]ncc4c3C1=O)C(C)(C)CC2C (stereo not drawn) [Example 29, 7-[2-(2,2,4,7-tetramethyl-3,4-dihydroquinolin-1(2H)-yl)ethyl]pyrazolo[3,4-b]pyrrolo[3,4-d]pyridine-6,8(3H,7H)-dione] | A (A = 80-100% INHIBITION) | C (C = <50% INHIBITION) | C (C = <50% INHIBITION) | A (A = 80-100% INHIBITION) | A (A = 80-100% INHIBITION) | C (C = <50% INHIBITION) |
| O=C1c2cnc3[nH]ncc3c2C(=O)N1Cc1c(F)ccc(F)c1Cl [Example 48, 7-(2-chloro-3,6-difluorobenzyl)pyrazolo[3,4-b]pyrrolo[3,4-d]pyridine-6,8(3H,7H)-dione] | C (C = <50% INHIBITION) | C (C = <50% INHIBITION) | B (B = 50-79% INHIBITION) | A (A = 80-100% INHIBITION) | B (B = 50-79% INHIBITION) | C (C = <50% INHIBITION) |
